Source: patent EP1019392B1, “TRICYCLIC AMIDES USEFUL FOR INHIBITION OF G-PROTEIN FUNCTION AND FOR TREATMENT OF PROLIFERATIVE DISEASES” (SCHERING CORPORATION, priority 1995, dated 1997)
Structures can show the parent of a compound that is named as a salt. Where two headings read alike, the source gives them in different places.

Legend:
[1] = tested on: DLD-1 (human colon carcinoma cells, ATCC # CCL 221); test: In Vivo Anti-Tumor Studies, subcutaneous DLD-1 tumors; parameters: species or system athymic nu/nu female mice; settings: Mus musculus, DLD-1, po, QID, 4 weeks, range over the listed compounds
Source text: Tumor cells (5 X 10^5 to 8 X 10^6) of DLD-1 (human colon carcinoma cells, ATCC # CCL 221) are innolculated subcutaneously into the flank of 5-6 week o;d athymic nu/nu female mice.

[2] = tested on: Normal human HEPM fibroblasts; test: Cell Mat Assay, normal cell mat; assay type: cell-based; settings: normal monolayer
[3] = tested on: T24-BAG4 human bladder carcinoma cells expressing an activated H-ras gene; test: Cell Mat Assay, T24 tumor cells; assay type: cell-based; settings: read-out: Tumor (T-24) IC50
[4] = biological target: T1, farnesyl protein transferase (FPT) (Rattus norvegicus, UniProt Q02293+Q04631); test: In vitro enzyme assay: inhibition of farnesyl protein transferase (transfer of [3H]farnesyl to Ras-CVLS); assay type: biochemical; settings: partially purified rat brain FPT, Ras-CVLS
T1 construct: were partially purified from rat brain by ammonium sulfate fractionation followed by Q-Sepharose; from tissue; host or cells: rat brain
Description: • 1. In vitro enzyme assays: Inhibition of farnesyl protein transferase and geranylgeranyl protein transferase. […] Human farnesyl protein transferase was also expressed in E. coli, using cDNA clones encoding both the a and b subunits. […] Human farnesyl protein transferase was partially-purified from the soluble protein fraction of E. coli as described above. […] Two forms of val^12-Ha-Ras protein were prepared as substrates for these enzymes, differing in their carboxy terminal sequence. One form terminated in cysteine-valine-leucine-serine (Ras-CVLS) the other in cystein-valine-leucine-leucine (Ras-CVLL). Ras-CVLS is a substrate for the farnesyl protein transferase while Ras-CVLL is a substrate for geranylgeranyl protein transferase I. The cDNAs encoding these proteins were constructed so that the proteins contain an amino-terminal extension of 6 histidine residues. Both proteins were expressed in Escherichia coli and purified using metal chelate affinity chromatography. The radiolabelled isoprenyl pyrophosphate substrates, [^3H]farnesyl pyrophosphate and [^3H]geranylgeranyl pyrophosphate, were purchased from DuPont/New England Nuclear. […] The reaction was allowed to proceed for 30 minutes at room temperature and then stopped with 0.5 ml of 4% sodium dodecyl sulfate (SDS) followed by 0.5 ml of cold 30% TCA. Samples were allowed to sit on ice for 45 minutes and precipitated Ras protein was then collected on GF/C filter paper mats using a Brandel cell harvester. […] Percent inhibition was calculated relative to the DMSO vehicle control. The geranylgeranyl protein transferase I assay was essentially identical to the farnesyl protein transferase assay described above, with two exceptions: [^3H]geranylgeranylpyrophosphate replaced farnesyl pyrophosphate as the isoprenoid donor and Ras-CVLL was the protein acceptor. […] Cell-Based Assay: Transient expression of val^12-Ha-Ras-CVLS and val^12-Ha-Ras-CVLL in COS monkey kidney cells: Effect of farnesyl protein transferase inhibitors on Ras processing and on disordered cell growth induced by transforming Ras. COS monkey kidney cells were transfected by electroporation with the plasmid pSV-SPORT (Gibco/BRL) containing a cDNA insert encoding either Ras-CVLS or Ras-CVLL, leading to transient overexpression of a Ras substrate for either farnesyl protein transferase or geranylgeranyl protein transferase I, respectively (see above). Following electroporation, cells were plated into 6-well tissue culture dishes containing 1.5 ml of Dulbecco's-modified Eagle's media (GIBCO, Inc.) supplemented with 10% fetal calf serum and the appropriate farnesyl protein transferase inhibitors. After 24 hours, media was removed and fresh media containing the appropriate drugs was re-added. 48 hours after electroporation cells were examined under the microscope to monitor disordered cell growth induced by transforming Ras. Cells expressing transforming Ras become more rounded and refractile and overgrow the monolayer, reminiscent of the transformed phenotype. Cells were then photographed, washed twice with 1 ml of cold phosphate-buffered saline (PBS) and removed from the dish by scraping with a rubber policeman into 1 ml of a buffer containing 25 mM Tris, pH 8.0; 1 mM ethylenediamine tetraacetic acid; 1 mM phenylmethylsulfonyl fluoride; […] leupeptin; and 0.1 mM pepstatin. Cells were lysed by homogenization and cell debris was removed by centrifugation at 2000 x g for 10 min. Cellular protein was precipitated by addition of ice-cold trichloroacetic acid and redissolved in […] of SDS-electrophoresis sample buffer. […] Proteins resolved on the gels were electroblotted onto nitrocellulose membranes for immunodetection. […] After washing, membranes were incubated for one hour at room temperature with a 1:5000 dilution of secondary antibody, rabbit anti-rat IgG conjugated to horseradish peroxidase, in PBS containing 1% fetal calf serum.

[5] = tested on: DLD-1-BAG human colon carcinoma cells expressing as activated K-ras gene; test: Cell Mat Assay, DLD-1 tumor cells; assay type: cell-based; settings: Homo sapiens, DLD-1, Mat assay
[6] = tested on: SW620-BAG human colon carcinoma cells expressing an activated K-ras gene; test: Cell Mat Assay, SW620 tumor cells; assay type: cell-based
[7] = tested on: Ras-CVLS processing in COS monkey kidney cells; test: COS cell assay: inhibition of Ras-CVLS processing (Western blot); assay type: cell-based
Source text: • 1. In vitro enzyme assays: Inhibition of farnesyl protein transferase and geranylgeranyl protein transferase. Both farnesyl protein transferase (FPT) and geranylgeranyl protein transferase (GGPT) I were partially purified from rat brain by ammonium sulfate fractionation followed by Q-Sepharose (Pharmacia, Inc.) anion exchange chromatography essentially as described by Yokoyama et al (Yokoyama, K., et al., (1991), A protein geranylgeranyltransferase from bovine brain: Implications for protein prenylation specificity, Proc. Natl. Acad. Sci USA 88: 5302-5306, the disclosure of which is incorporated herein by reference thereto). Human farnesyl protein transferase was also expressed in E. coli, using cDNA clones encoding both the a and b subunits. The methods used were similar to those published (Omer, C. et al., (1993), Characterization of recombinant human farnesyl protein transferase: Cloning, expression, farnesyl diphosphate binding, and functional homology with yeast prenyl-protein transferases, Biochemistry 32:5167-5176). Human farnesyl protein transferase was partially-purified from the soluble protein fraction of E. coli as described above. […] Two forms of val^12-Ha-Ras protein were prepared as substrates for these enzymes, differing in their carboxy terminal sequence. One form terminated in cysteine-valine-leucine-serine (Ras-CVLS) the other in cystein-valine-leucine-leucine (Ras-CVLL). Ras-CVLS is a substrate for the farnesyl protein transferase while Ras-CVLL is a substrate for geranylgeranyl protein transferase I. The cDNAs encoding these proteins were constructed so that the proteins contain an amino-terminal extension of 6 histidine residues. Both proteins were expressed in Escherichia coli and purified using metal chelate affinity chromatography. The radiolabelled isoprenyl pyrophosphate substrates, [^3H]farnesyl pyrophosphate and [^3H]geranylgeranyl pyrophosphate, were purchased from DuPont/New England Nuclear. Several methods for measuring farnesyl protein transferase activity have been described (Reiss et al 1990, Cell 62: 81; Schaber et al 1990, J. Biol. Chem. 265: 14701; Manne et al 1990, PNAS 87: 7541; and Barbacid & Manne 1993, U.S. Patent No. 5,185,248). […] The reaction was allowed to proceed for 30 minutes at room temperature and then stopped with 0.5 ml of 4% sodium dodecyl sulfate (SDS) followed by 0.5 ml of cold 30% TCA. Samples were allowed to sit on ice for 45 minutes and precipitated Ras protein was then collected on GF/C filter paper mats using a Brandel cell harvester. Filter mats were washed once with 6% TCA, 2% SDS and radioactivity was measured in a Wallac 1204 Betaplate BS liquid scintillation counter. Percent inhibition was calculated relative to the DMSO vehicle control. The geranylgeranyl protein transferase I assay was essentially identical to the farnesyl protein transferase assay described above, with two exceptions: [^3H]geranylgeranylpyrophosphate replaced farnesyl pyrophosphate as the isoprenoid donor and Ras-CVLL was the protein acceptor. […] Cell-Based Assay: Transient expression of val^12-Ha-Ras-CVLS and val^12-Ha-Ras-CVLL in COS monkey kidney cells: Effect of farnesyl protein transferase inhibitors on Ras processing and on disordered cell growth induced by transforming Ras. COS monkey kidney cells were transfected by electroporation with the plasmid pSV-SPORT (Gibco/BRL) containing a cDNA insert encoding either Ras-CVLS or Ras-CVLL, leading to transient overexpression of a Ras substrate for either farnesyl protein transferase or geranylgeranyl protein transferase I, respectively (see above). Following electroporation, cells were plated into 6-well tissue culture dishes containing 1.5 ml of Dulbecco's-modified Eagle's media (GIBCO, Inc.) supplemented with 10% fetal calf serum and the appropriate farnesyl protein transferase inhibitors. After 24 hours, media was removed and fresh media containing the appropriate drugs was re-added.

For NC(=O)N1CCC(CC(=O)N2CCC(C3c4ccc(Cl)cc4C=Cc4cc(Br)cnc43)CC2)CC1 (centres unmarked) [Example 1], the inhibition in vivo at 10 mg/kg ([1]; 10 mg/kg p.o.) was 7 to 50%, the inhibition in vivo at 50 mg/kg ([1]; 50 mg/kg p.o.) was 35.4 to 83% and the IC50 ([2]; Homo sapiens, Fibroblast) was over 25000 nM. It also gave an IC50 ([3]; Homo sapiens) of under 1600 nM and an IC50 ([4]; Table 1, read-out: FPT IC50) of under 34 nM.
For O=C(Cc1cc[n+]([O-])cc1)N1CCC(C2c3ccc(Cl)c(Br)c3CCc3cc(Br)cnc32)CC1 (centres unmarked) [Example 14B], the IC50 ([4]; FPT IC50, Table 1) was 5 nM.
In the case of O=C(Cc1cc[n+]([O-])cc1)N1CCN(C2c3ncc(Br)cc3CCc3cc(Cl)cc(Cl)c32)CC1 (single isomer, unassigned) [Example 19], the IC50 ([2]; Homo sapiens, Fibroblast) is reported as over 25000 nM, the IC50 [5] is reported as under 1600 nM and the IC50 ([6]; Homo sapiens, SW-620, Mat assay) is reported as 6250 nM. It also gave an IC50 ([3]; Homo sapiens) of under 1600 nM and an IC50 ([4]; Table 1, read-out: FPT IC50) of under 3.8 nM.
For O=C(Cc1cc[n+]([O-])cc1)N1CCN(C2c3ncc(Br)cc3CCc3cccc(Cl)c32)CC1 (single isomer, unassigned) [Example 20], the IC50 ([7]; Primates, COS) was about 30 nM.
Compound NC(=O)N1CCC(CC(=O)N2CCC([C@@H]3c4ncc(Br)cc4CCc4cc(Cl)cc(Br)c43)CC2)CC1 [Example 10A] has an IC50 [2] of 8000 nM, an IC50 ([6]; Mat assay) of 1600 nM and an IC50 [3] of under 1600 nM.
O=C(Cc1cc[n+]([O-])cc1)N1CCC(C2c3ccc(Cl)c(Br)c3CCc3cc(Br)cnc32)CC1 (centres unmarked) [14A • HCl salt] gave an IC50 [7] of 15 nM and an IC50 ([4]; Table 1, read-out: FPT IC50) of under 3.1 nM.
Work on O=C(Cc1cc[n+]([O-])cc1)N1CCN(C2c3ncc(Br)cc3CCc3cc(Cl)cc(F)c32)CC1 (centres unmarked) [Example 21] yielded an IC50 ([7]; Primates, COS) of 420 nM and an IC50 ([4]; Table 1, read-out: FPT IC50) of 8.4 nM.
Work on O=C(Cc1cc[n+]([O-])cc1)N1CCN(C2c3ccc(Cl)c(Br)c3CCc3cc(Br)cnc32)CC1 (centres unmarked) [5 • HCl salt] yielded an IC50 ([7]; Primates, COS) of 10 nM and an IC50 ([4]; Table 1, read-out: FPT IC50) of 3.8 nM.
Work on NC(=O)N1CCC(CC(=O)N2CCC(C3c4ccc(Cl)c(Br)c4CCc4cc(Br)cnc43)CC2)CC1 (single isomer, unassigned) [Example 13A] yielded an IC50 [5] of 6250 nM, an IC50 ([6]; Mat assay) of 6250 nM and an IC50 [7] of over 1000 nM.
O=C(Cc1cc[n+]([O-])cc1)N1CCC(C2c3ncc(Br)cc3CCc3cc(Cl)cc(Br)c32)CC1 (single isomer, unassigned) [Example 9A] showed an IC50 ([3]; Homo sapiens) of under 1600 nM and an IC50 ([7]; Primates, COS) of 850 nM.
